“Also recorded” adds a separate entry of the source. Read-outs that look alike come from different tables or passages of the source. Where a SMILES comes first, the peptide text is derived from it. Bridges are numbered along the chain shown (N, C = ends). Roman numbers before positions name the chains, in order. Where no end group is shown, it is not given here. [ ]: non-standard residue; d: D form. Nle = CCCC[C@H](N)C(=O)O
How the values were obtained:
eosinophils = test: Eosinophil cytotoxicity by real-time impedance tracing (xCELLigence RTCA); assay type: cell-based, IL-5 transgenic mice; conditions: for cytotoxic effect on eosinophils as measured by AUC: 3 μg/ml; for Average magnitude of largest AUC: AUC of normalized cell index, negative AUC = cell death; for average AUC (decrease in cell index): 30 μg/ml; for normalized cell index tracings over time (peptide activity): after 24 hours
Source text: IL-5 transgenic mice were euthanized and blood collected by cardiac puncture through the left ventricle. Red blood cells (RBCs) were lysed using a red blood cell lysis solution (Miltenyi Biotec, Auburn CA). Eosinophils were isolated by negative selection using biotin-conjugated antibodies (CD45R, Thy 1.2, F4/80) and magnetic beads, as previously described (see, Dy, A. B. C., et al., 2019 J Immunol 203: 1122-1130; Ledford, J. G., et al., 2012 PLoS One 7: e32436). Purity of each preparation was verified using standard morphometric analysis of cytocentrifuged slides stained with Easy III™ rapid differential staining kit (Azer Scientific, Morgantown Pa.) to be greater than 95%.
High throughput real-time monitoring of eosinophil cell death was assessed by measuring electrical impedance using the xCELLigence Real-Time Cell Analyzer (ACEA Biosciences, San Diego Calif.) as previously described (see, Dy, A. B. C., et al., 2019 J Immunol 203: 1122-1130; Flynn, A. N., et al., FASEB J 27: 1498-1510; Zeng, C., et al., Environ Res 164: 452-458). Using 96-well gold electrode coated plates (E-plates, ACEA Biosciences) incubated at 37° C. and 5% CO2, an initial background reading was obtained with media only. In a total volume of […] were seeded at 1×10^6 cells/well and allowed to settle for ˜5 hours. Test compounds were added at various concentrations (1, 3, 10 and 30 μg/ml) and changes in electrical impedance were measured over time. Impedance measurements were calculated and presented as normalized cell index (see, Flynn, A. N., et al., FASEB J 27: 1498-1510; Zeng, C., et al., Environ Res 164: 452-458), where a decrease in cell index corresponds to an increase in eosinophil cytotoxicity. Impedance tracings over time were derived from averages of 3-4 technical replicates. To quantify and compare cytotoxicity, the area under the curve (AUC) was calculated using cell index values. Half maximal effective concentration (EC50) values were generated using equivalent molar concentrations and their corresponding dose-response curves for each peptidomimetic.

mouse model of asthma = test: HDM experimental allergen challenge, in vivo mouse model of asthma; parameters: species or system mice; conditions: pre-clinical mouse model of asthma; preliminary data
Source text: FIG. 1A-C. Evaluation of SP-A-derived 10-mer native peptide in an in vivo mouse model of asthma. A) Schematic of HDM experimental allergen challenge. B) Newtonian resistance
(Rn) during methacholine challenge of wild-type mice 6 days after terminal HDM challenge. C) Total eosinophil counts in BAL (left panel) and mucin production (right panel) by PAS scoring. Unpaired t-test, *p<0.05, **p<0.01.

[1] = Table 3 summary of lead peptidomimetics, eosinophils, RTCA, read-out: EC50

| Molecule | Average magnitude of largest AUC (eosinophils; eosinophils, RTCA) | Concentration at which average AUC is largest (eosinophils; eosinophils, RTCA) | EC50 (eosinophils) | other results |
| --- | --- | --- | --- | --- |
| CSCC[C@H](NC(=O)[C@H](CCC(=O)O)NC(=O)[C@@H](NC(=O)[C@H](CSSC[C@H](NC(=O)[C@H](CCC(N)=O)NC(=O)[C@H](CCC(=O)O)NC(=O)[C@H](CCCCN)NC(C)=O)C(=O)N[C@H](C(=O)N[C@@H](CCC(=O)O)C(=O)N[C@@H](CCSC)C(=O)N[C@@H](Cc1ccc(O)cc1)C(=O)N[C@H](C(=O)N[C@@H](CC(=O)O)C(N)=O)[C@@H](C)O)C(C)C)NC(=O)[C@H](CCC(N)=O)NC(=O)[C@H](CCC(=O)O)NC(=O)[C@H](CCCCN)NC(C)=O)C(C)C)C(=O)N[C@@H](Cc1ccc(O)cc1)C(=O)N[C@H](C(=O)N[C@@H](CC(=O)O)C(N)=O)[C@@H](C)O [Peptidomimetic 868, (Ac-KEQCVEMYTD-NH2)2] (I: Ac-KEQCVEMYTD-NH2 / II: Ac-KEQCVEMYTD-NH2; disulfide I:4-II:4) | −9.21 | 1.17 µM |  | cytotoxic effect on eosinophils as measured by AUC (eosinophils): most robust cytotoxic effect; also recorded: most comparable response to full-length SP-A; EC50 (eosinophils; [1]): 10.9 µM |
| CCCC[C@H](NC(=O)[C@H](CCC(=O)O)NC(=O)[C@@H](NC(=O)[C@H](CS)NC(=O)[C@H](CCC(N)=O)NC(=O)[C@H](CCC(=O)O)NC(=O)[C@H](CCCCN)NC(C)=O)C(C)C)C(=O)N[C@@H](Cc1ccc(O)cc1)C(=O)N[C@H](C(=O)N[C@@H](CC(=O)O)C(N)=O)[C@@H](C)O [Peptidomimetic 882, Ac-KEQCVE-Nle-YTD-NH2] (Ac-KEQCVE[Nle]YTD-NH2) |  |  | 3 µM |  |
| CCCC[C@H](NC(=O)[C@H](CCC(=O)O)NC(=O)[C@@H](NC(=O)[C@H](C)NC(=O)[C@H](CCC(N)=O)NC(=O)[C@H](CCC(=O)O)NC(=O)[C@H](CCCCN)NC(=O)CNC(=O)[C@H](Cc1c[nH]c2ccccc12)NC(C)=O)C(C)C)C(=O)N[C@@H](Cc1ccc(O)cc1)C(=O)N[C@H](C(=O)N[C@@H](CC(=O)O)C(N)=O)[C@@H](C)O [Peptidomimetic 891, Ac-WGKEQAVE-Nle-YTD-NH2] (Ac-WGKEQAVE[Nle]YTD-NH2) |  |  | 1.03 µM |  |
| CCCC[C@H](NC(=O)[C@H](CCC(=O)O)NC(=O)[C@@H](NC(=O)[C@H](CS)NC(=O)[C@H](CCC(N)=O)NC(=O)[C@H](CCC(=O)O)NC(=O)[C@H](CCCCN)NC(=O)CNC(=O)[C@H](Cc1c[nH]c2ccccc12)NC(C)=O)C(C)C)C(=O)N[C@@H](Cc1ccc(O)cc1)C(=O)N[C@H](C(=O)N[C@@H](CC(=O)O)C(N)=O)[C@@H](C)O [Peptidomimetic 892, Ac-WGKEQCVE-Nle-YTD-NH2] (Ac-WGKEQCVE[Nle]YTD-NH2) | −1.07 | 0.10 µM | 0.008 µM | magnitude of the calculated AUCs compared with full-length SP-A, 10-mer, 20-mer and several peptidomimetics (eosinophils; eosinophils, RTCA): much smaller |
| CCCC[C@H](NC(=O)[C@H](CCC(=O)O)NC(=O)[C@@H](NC(=O)[C@H](CS)NC(=O)[C@H](CCC(N)=O)NC(=O)[C@H](CCC(=O)O)NC(=O)[C@H](CCCCN)NC(=O)CNC(=O)[C@H](CCCNC(=N)N)NC(C)=O)C(C)C)C(=O)N[C@@H](Cc1ccc(O)cc1)C(=O)N[C@H](C(=O)N[C@@H](CC(=O)O)C(N)=O)[C@@H](C)O [Peptidomimetic 893, Ac-RGKEQCVE-Nle-YTD-NH2] (Ac-RGKEQCVE[Nle]YTD-NH2) |  |  | 0.038 µM |  |
| CCCC[C@H](NC(=O)[C@H](CCC(=O)O)NC(=O)[C@@H](NC(=O)[C@H](CS)NC(=O)[C@H](CCC(N)=O)NC(=O)[C@H](CCC(=O)O)NC(=O)[C@H](CCCCN)NC(=O)CNC(=O)[C@@H](Cc1c[nH]c2ccccc12)NC(C)=O)C(C)C)C(=O)N[C@@H](Cc1ccc(O)cc1)C(=O)N[C@H](C(=O)N[C@@H](CC(=O)O)C(N)=O)[C@@H](C)O [Peptidomimetic 894, Ac-wGKEQCVE-Nle-YTD-NH2] (Ac-[dW]GKEQCVE[Nle]YTD-NH2) | −1.63 | 0.01 µM | 0.012 µM | magnitude of the calculated AUCs compared with full-length SP-A, 10-mer, 20-mer and several peptidomimetics (eosinophils; eosinophils, RTCA): much smaller |
| Ac-GDFRYSDGTPVNYTNWYRGE-NH2 [Peptidomimetic 889] |  |  | 1.79 µM |  |
| Ac-KEQAVEMYTD-NH2 [Peptidomimetic 884, Ac-KEQAVEMYTD-NH2] |  |  | 10.6 µM |  |
| Ac-KEQCVEMYTD (N-terminus assumed) [10-mer peptide, KEQCVEMYTD, reference compound] | −2.62 | 24.00 µM | 16 µM | airway hyperresponsiveness (mouse model of asthma): reduce; airway mucus production (mouse model of asthma): reduce; eosinophilia (mouse model of asthma): reduce; average AUC (decrease in cell index) (eosinophils; eosinophils, RTCA): -2.62; EC50 (eosinophils; [1]): 16 µM; normalized cell index tracings over time (peptide activity) (eosinophils; eosinophils, RTCA): decline in peptide activity after 24 hours |
| Ac-KEQCVEMYTD-NH2 [Peptidomimetic 856, Ac-KEQCVEMYTD-NH2] |  |  | 8.21 µM |  |
| Ac-KEQCVEMYTD-OH [Peptidomimetic 870, Ac-KEQCVEMYTD-acid] |  |  | 10.8 µM |  |
| Ac-KEQSVEMYTD-NH2 [Peptidomimetic 883, Ac-KEQSVEMYTD-NH2] |  |  | 9.41 µM |  |
| Ac-SDGTPVNYTNWYRGEPAGRGKEQ-NH2 [Peptidomimetic 888] |  |  | 0.035 µM |  |
| Ac-WGKEQCVEMYTD-NH2 [Peptidomimetic 867, Ac-WGKEQCVEMYTD-NH2] | −9.06 | 1.96 µM |  | cytotoxic effect on eosinophils as measured by AUC (eosinophils): most robust cytotoxic effect; also recorded: most comparable response to full-length SP-A; EC50 (eosinophils; [1]): 0.95 µM |
| Full-length SP-A: Full-length surfactant protein A; served as the positive control for eosinophil cell death | −13.89 | 0.86 µM |  | average AUC (decrease in cell index) (eosinophils; eosinophils, RTCA): −13.89; eosinophil cell death (eosinophils; eosinophils, RTCA): induced eosinophil cell death in a dose-dependent manner; EC50 (eosinophils; eosinophils, RTCA, concentration range 1, 3, 10 and 30 μg/ml, read-out: EC50 (half maximal effective concentration, based on AUC at each dose)): 0.158 µM |
| H-KEQCVEMYTD-OH [Peptidomimetic 871, H-KEQCVEMYTD-acid] |  |  | 2.52 µM |  |
| PAGRGKEQCVEMYTDGQWND [20-mer peptide, reference compound] | −3.50 | 13.10 µM | 14.7 µM | airway hyperresponsiveness (mouse model of asthma): reduce; airway mucus production (mouse model of asthma): reduce; eosinophilia (mouse model of asthma): reduce; average AUC (decrease in cell index) (eosinophils; eosinophils, RTCA): -3.50; EC50 (eosinophils; [1]): 14.7 µM; normalized cell index tracings over time (peptide activity) (eosinophils; eosinophils, RTCA): decline in peptide activity after 24 hours |

Source: patent US20230135877A1, “COMPOSITIONS AND METHODS FOR TREATING AND PREVENTING LUNG DISEASE” (Arizona Board of Regents on Behalf of the University of …, priority 2020, published 2023)
